This passage reports IC50 results from patent US8138168B1 (Takeda Pharmaceutical Company Limited, priority 2007, dated 2012).

This test concerns the target T1, Recombinant human renin (Homo sapiens, UniProt P00797).
T1 construct: isolate the active form (residues 67-406); made in house; host or cells: FreeStyle 293-F cells (transient expression of pcDNA3.1(+)/hREN)
T1 sequence (P00797 67-406): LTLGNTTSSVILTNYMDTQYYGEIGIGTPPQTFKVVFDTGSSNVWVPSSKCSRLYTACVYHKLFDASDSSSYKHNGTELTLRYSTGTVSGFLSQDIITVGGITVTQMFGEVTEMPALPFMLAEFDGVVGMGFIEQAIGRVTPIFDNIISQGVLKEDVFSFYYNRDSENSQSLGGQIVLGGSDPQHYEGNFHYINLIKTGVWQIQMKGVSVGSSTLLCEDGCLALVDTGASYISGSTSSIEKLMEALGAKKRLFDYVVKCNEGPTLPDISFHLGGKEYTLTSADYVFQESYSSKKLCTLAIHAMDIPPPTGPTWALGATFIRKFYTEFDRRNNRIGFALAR
Nature of the test: In vitro enzymatic activity assay of renin inhibitors (fluorogenic peptide substrate). The format is biochemical. As to conditions: read-out: IC50 of Exemplified Compounds Against Renin. A digest of the protocol:
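Enzyme: recombinant human renin, 3 nM final, 10 min compound pre-incubation at 37 °C; buffer 50 mM Hepes pH 7.4 with 0.1 mg/mL BSA or extra 2% BSA; 5% DMSO.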

Some results are limits rather than exact numbers.

By IC50 is commonly meant the concentration at which inhibition is half-maximal. `COCCCn1c([C@@H]2CCCN(C(=O)[C@@H]3CN(S(=O)(=O)c4ccc(C(C)(C)C)cc4)C[C@H]3N)C2)nc2ccccc21` [Compound 374, ((3R,4S)-4-amino-1-(4-tert-butylphenylsulfonyl)pyrrolidin-3-yl)((R)-3-(1-(3-methoxypropyl)-1H-benzo[d]imidazol-2-yl)piperidin-1-yl)methanone]: the IC50 was in the range of 100 to 1000 nM.
With `COCCCn1c([C@@H]2CCCN(C(=O)C[C@H](N)Cc3ccc(-c4ccc(N(C)C)cc4)cc3)C2)nc2ccccc21` [Compound 161, (R)-3-amino-4-(4′-(dimethylamino)biphenyl-4-yl)-1-((R)-3-(1-(3-methoxypropyl)-1H-benzo[d]imidazol-2-yl)piperidin-1-yl)butan-1-one] the figure was < 100 nM; with `COCCCn1c([C@@H]2CCCN(C(=O)C[C@H](N)Cc3ccc(-c4ccccc4)cc3)C2)nc2ccccc21` [Compound 124, (R)-3-amino-4-(biphenyl-4-yl)-1-((R)-3-(1-(3-methoxypropyl)-1H-benzo[d]imidazol-2-yl)piperidin-1-yl)butan-1-one], < 100 nM; with `COCCCn1c([C@@H]2CCCN(C(=O)C[C@H](N)Cc3ccc(-c4ccc(C(=O)NCCOC)cc4Cl)cc3)C2)nc2ccccc21` [Compound 193, 4′-((R)-2-amino-4-((R)-3-(1-(3-methoxypropyl)-1H-benzo[d]imidazol-2-yl)piperidin-1-yl)-4-oxobutyl)-2-chloro-N-(2-methoxyethyl)biphenyl-4-carboxamide], < 100 nM.
Then `O=C(NCc1ccco1)N1CCCC(c2nc3ccccc3[nH]2)C1` (stereo not drawn) [Compound 21, 3-(1H-benzo[d]imidazol-2-yl)-N-(furan-2-ylmethyl)piperidine-1-carboxamide], with > 1000 nM; and `COCCCn1c([C@@H]2CCCN(C(=O)[C@@H]3CN(C(=O)N4CCOCC4)C[C@H]3N)C2)nc2ccccc21` [Compound 423, ((3R,4S)-4-amino-1-(morpholine-4-carbonyl)pyrrolidin-3-yl)((R)-3-(1-(3-methoxypropyl)-1H-benzo[d]imidazol-2-yl)piperidin-1-yl)methanone], with > 1000 nM.
